# Marks after values point to notes of the source that are not given here.
# Assays:
# [1] = Plasma glucagon immunoreactivity during intravenous GLP-1 infusion; type: in vivo, human
# Experimental: (§1) All values were expressed as mean±SEM. […] Differences were considered significant at P<0.05.
# (§2) All studies were performed after an overnight fast.
# (§3) The plasma was stored at −20° C. until assayed.
# [2] = Plasma glucose during intravenous GLP-1 infusion (glucose oxidase method); type: in vivo, human; conditions: for Nadir of plasma glucose: at 20 min
# Experimental: as §1, §2, §3
# [3] = Plasma insulin during intravenous GLP-1 infusion (immunoassay); type: in vivo, human
# Experimental: as §1, §2, §3
# antro-duodenal motility = test: Antro-duodenal motility by perfusion manometry; type: in vivo, human; conditions: for Duodenal Motility Contractions: sum of three duodenal side holes; for Antral Motility Contractions: sum of two antral side holes
# Experimental: (§4) Inhibition of antro-duodenal activity is assessed directly by motility recordings using methods that are well known to the skilled artisan. Contractile events are analyzed with a computer and validated software (Katschinski et al., Gastroenterol. 103, 383-91 (1992)) and only peaks with amplitudes of at least 10 mmHg and a duration of at least 2 s are considered true contractions. Duodenal phase III is defined as the occurrence of regular contractions at a frequency of ≧10/min for at least 2 min in the duodenum propagated aborally.
# In one embodiment, the data are analyzed in 10-min segments separately for antrum and duodenum by summarizing (frequency, motility index) or averaging (amplitude) the values derived from, the two antral and three duodenal side holes, respectively. Motility indexes are identified as the area under the contractions and are expressed in mmHg·s·min^−1. Antral contractions are determined to be antro-pyloro-duodenally propagated waves if the onset of the pressure wave recorded in the most proximal duodenal side hole, occurs within 5 sec after the onset of a pressure wave recorded in one of the antral side holes and if both wave are registered by all side holes in between.
# as §2
# (§5) Perfusion manometry was recorded using a nine-lumen duodenal sleeve/side-hole catheter (Dentsleeve, South Australia, Australia). The manometric assembly incorporated a 4.5 cm long sleeve sensor, two antral side-holes (2 cm apart), and three duodenal side-holes (2 cm apart), beginning at the proximal and distal end of the sleeve, respectively. Two more side-holes were positioned across the sleeve spaced 1.5 cm apart. An additional lumen located 12 cm distal to the sleeve sensor was used for duodenal perfusion.
# (§6) The correct position of the duodenal probe with the sleeve array straddling the pylorus was fluoroscopically checked before start of each experiment, and monitored throughout each study by measuring the transmucosal potential difference at the distal antral and the proximal duodenal port, as previously described (Schirra et al. J Clin Invest 97, 92-103 (1996)). A difference of at least −15 mV indicated correct transpyloric position of the tube.
# (§7) The motility channels were perfused at a rate of 0.3 ml/min using a low-compliance pneumohydraulic pump (Arndorfer Medical Specialists, Greendale, Wis.). Pressures were measured by external transducers. Data were simultaneously recorded on the screen of a multichannel chart system (PC Polygraph, Synectics Medical, Stockholm, Sweden) and stored in the memory of a personal computer. Data were sampled and digitized at 8 Hz followed by digital smoothing by a factor of 2.
# [4] = Plasma pancreatic polypeptide immunoreactivity during intravenous GLP-1 infusion; type: in vivo, human
# Experimental: as §1, §2, §3
# [5] = during the experiments of the application
# Experimental: Eleven healthy male volunteers, 23 to 28 years old and within 10% of ideal body weight, participated in the studies. None of them were taking medication, or suffering from gastrointestinal symptoms or systemic disease.
# All studies were performed after an overnight fast. Two experiments were performed, separated by at least 1 week on subjects lying in a semirecumbent position. An indwelling catheter was inserted into an antecubital vein for intravenous infusions. A second catheter was inserted into a dorsal vein of the contralateral hand in a retrograde fashion for sampling of arterialized blood (Schirra et al. Proc Assoc Am Physicians 109, 84-97 (1997)).
# On the interdigestive study day, 0.154 M saline was continuously perfused into the region of the lower duodenal flexure at a rate of 2.5 ml/min. […] On the postprandial study day, the same intravenous infusions were administered with an intraduodenal lipid perfusion at 2.5 kcal/min (2.5 ml/min, Lipofundin MCT 10%, Braun Co., Melsungen, Germany). This lipid preparation consisted of 50% medium-chain triglycerides (MCT) and 50% long-chain triglycerides (LCT, soya bean oil).
# pyloric motility = test: Pyloric motility (IPPW, pyloric tone) and duodenal phase III by perfusion manometry; type: in vivo, human; conditions: for Volunteers with duodenal phase III: within 10 min after GLP-1 infusion; for Pyloric Motility IPPW: actual values; for Pyloric tone: values over basal
# Experimental: as §4
# As used herein, “inhibition” of antro-pyloro-duodenal motility is defined as a reduction in the motility index. Other methods for measuring motility can be used. One of skill in the art will appreciate that a significant inhibition, including total inhibition, of motility will be useful.
# The present invention also relates to therapeutic methods associated with stimulating pyloric motility. Two parameters used to describe pyloric motility are: 1) Isolated pyloric pressure waves (IPPW), defined as contractions registered by the sleeve with or without simultaneous contractions in maximally one sleeve-side-hole in the absence of associated (±3 sec) waves of any amplitude in the adjacent antral and duodenal side-holes and 2) pyloric tone. Pyloric tone is measured by deducting the basal pressure recorded by the antral side hole at the proximal end of the sleeve, from the basal pressure recorded by the sleeve. Basal pressures is defined as the mean pressure after excluding contractions; it is obtained each minute and used to calculate mean pyloric tone.
# as §1, §2, §5, §6, §7
# [6] = intraduodenal lipid, high dose 1.2 pmol·kg−1·min−1 iv.
# [7] = intraduodenal lipid, low dose 0.4 pmol·kg−1·min−1 iv.
# [8] = intraduodenal saline, high dose 1.2 pmol·kg−1·min−1 iv.
# [9] = intraduodenal saline, low dose 0.4 pmol·kg−1·min−1 iv.
# [10] = low dose GLP-1, interdigestive, duodenal saline
# [11] = low dose GLP-1, interdigestive state
smiles,measurement,setting,value
"CC[C@H](C)[C@H](NC(=O)[C@H](Cc1ccccc1)NC(=O)[C@H](CCC(=O)O)NC(=O)[C@H](CCCCN)NC(=O)[C@H](C)NC(=O)[C@H](C)NC(=O)[C@H](CCC(N)=O)NC(=O)CNC(=O)[C@H](CCC(=O)O)NC(=O)[C@H](CC(C)C)NC(=O)[C@H](Cc1ccc(O)cc1)NC(=O)[C@H](CO)NC(=O)[C@H](CO)NC(=O)[C@@H](NC(=O)[C@H](CC(=O)O)NC(=O)[C@H](CO)NC(=O)[C@@H](NC(=O)[C@H](Cc1ccccc1)NC(=O)[C@@H](NC(=O)CNC(=O)[C@H](CCC(=O)O)NC(=O)[C@H](C)NC(=O)[C@@H](N)Cc1c[nH]cn1)[C@@H](C)O)[C@@H](C)O)C(C)C)C(=O)N[C@@H](C)C(=O)N[C@@H](Cc1c[nH]c2ccccc12)C(=O)N[C@@H](CC(C)C)C(=O)N[C@H](C(=O)N[C@@H](CCCCN)C(=O)NCC(=O)N[C@@H](CCCNC(=N)N)C(N)=O)C(C)C [GLP-1, glucagon-like peptide-1(7-36)amide]",Glucagon (AUC over basal),[1]; [6],48.0 ± 33.8*‡∥ pg/ml · 60 min
same,Glucagon (AUC over basal),[1]; [7],99.7 ± 25.1*∥ pg/ml · 60 min
same,Glucagon (AUC over basal),[1]; [8],−68.6 ± 28.9 pg/ml · 60 min
same,Glucagon (AUC over basal),[1]; [9],−59.0 ± 37.1 pg/ml · 60 min
same,Nadir of plasma glucose,[2]; high dose GLP-1,3.64 ± 0.14 mmol/L
same,Plasma glucose (AUC over basal),[2]; [6],−4.5 ± 0.7*∥ mmol/l · 60 min
same,Plasma glucose (AUC over basal),[2]; [7],−4.7 ± 0.5*∥ mmol/l · 60 min
same,Plasma glucose (AUC over basal),[2]; [8],−2.5 ± 0.4 mmol/l · 60 min
same,Plasma glucose (AUC over basal),[2]; [9],−2.3 ± 0.3 mmol/l · 60 min
same,Nadir of plasma glucose,[2]; low dose GLP-1,3.58 ± 0.12 mmol/L
same,Insulin (AUC over basal),[3]; [6],31.4 ± 8.4∥ mU/l · 60 min
same,Insulin (AUC over basal),[3]; [7],24.7 ± 4.8∥ mU/l · 60 min
same,Insulin (AUC over basal),[3]; [8],11.9 ± 5.1 mU/l · 60 min
same,Insulin (AUC over basal),[3]; [9],11.3 ± 2.4 mU/l · 60 min
same,Antral Amplitude,antro-duodenal motility; [6],23.0 ± 2.7 mmHg
same,Antral Motility Index,antro-duodenal motility; [6],628 ± 249 mmHg*s/60 min
same,Duodenal Amplitude,antro-duodenal motility; [6],19.2 ± 3.1 mmHg
same,Duodenal Motility Index,antro-duodenal motility; [6],1174 ± 499 mmHg*s/60 min
same,Duodenal Motility Contractions,antro-duodenal motility; [6],16.6 ± 5.9 number / 60 min
same,Antral Motility Contractions,antro-duodenal motility; [6],9.2 ± 2.9 number / 60 min
same,Antral Amplitude,antro-duodenal motility; [7],23.6 ± 3.1 mmHg
same,Antral Motility Index,antro-duodenal motility; [7],880 ± 351 mmHg*s/60 min
same,Duodenal Amplitude,antro-duodenal motility; [7],26.0 ± 3.3 mmHg
same,Duodenal Motility Index,antro-duodenal motility; [7],2776 ± 890 mmHg*s/60 min
same,Duodenal Motility Contractions,antro-duodenal motility; [7],29.5 ± 5.8 number / 60 min
same,Antral Motility Contractions,antro-duodenal motility; [7],12.1 ± 4.1 number / 60 min
same,Antral Amplitude,antro-duodenal motility; [8],21.1 ± 3.1 mmHg
same,Antral Motility Index,antro-duodenal motility; [8],957 ± 322 mmHg*s/60 min
same,Antro-Pyloro-Duodenal Propagated Contractions,antro-duodenal motility; [8],0.0* number/60 min
same,Duodenal Amplitude,antro-duodenal motility; [8],17.5 ± 1.9 mmHg
same,Duodenal Motility Index,antro-duodenal motility; [8],1119 ± 226 mmHg*s/60 min
same,Duodenal Motility Contractions,antro-duodenal motility; [8],16.6 ± 3.9 number / 60 min
same,Antral Motility Contractions,antro-duodenal motility; [8],9.6 ± 2.8 number / 60 min
same,Antral Amplitude,antro-duodenal motility; [9],31.1 ± 3.1 mmHg
same,Antral Motility Index,antro-duodenal motility; [9],1478 ± 564 mmHg*s/60 min
same,Antro-Pyloro-Duodenal Propagated Contractions,antro-duodenal motility; [9],0.0* number/60 min
same,Duodenal Amplitude,antro-duodenal motility; [9],25.0 ± 2.5 mmHg
same,Duodenal Motility Index,antro-duodenal motility; [9],3447 ± 1624 mmHg*s/60 min
same,Duodenal Motility Contractions,antro-duodenal motility; [9],36.0 ± 14.7 number / 60 min
same,Antral Motility Contractions,antro-duodenal motility; [9],12.6 ± 2.8 number / 60 min
same,Onset of inhibition of antro-duodenal motility after starting GLP-1,antro-duodenal motility; [10],≤ 2 min
same,Time to nearly complete inhibition of antro-duodenal motility,antro-duodenal motility; [10],≤ 20 min
same,Pancreatic polypeptide (AUC over basal),[4]; [6],−104.2 ± 71.1 pg/ml · 60 min
same,Pancreatic polypeptide (AUC over basal),[4]; [7],7.7 ± 55.4*∥ pg/ml · 60 min
same,Pancreatic polypeptide (AUC over basal),[4]; [8],−128.9 ± 33.2 pg/ml · 60 min
same,Pancreatic polypeptide (AUC over basal),[4]; [9],−90.5 ± 32.7 pg/ml · 60 min
same,Hypoglycemia and other side effects,[5],did not cause hypoglycemia
same,Subjects with duodenal phases III,pyloric motility; GLP-1 infusion in conjunction with lipid perfusion,two out of 11
same,Volunteers with duodenal phase III,"pyloric motility; high dose GLP-1, interdigestive state",five
same,Pyloric Motility IPPW,pyloric motility; [6],15.5 ± 2.1 number/10 min
same,Pyloric tone,pyloric motility; [6],8.6 ± 1.0 mmHg
same,Pyloric Motility IPPW,pyloric motility; [7],15.7 ± 2.5 number/10 min
same,Pyloric tone,pyloric motility; [7],7.4 ± 1.0 mmHg
same,Pyloric Motility IPPW,pyloric motility; [8],8.6 ± 1.3 number/10 min
same,Pyloric tone,pyloric motility; [8],7.3 ± 1.5 mmHg
same,Pyloric Motility IPPW,pyloric motility; [9],10.1 ± 1.9 number/10 min
same,Pyloric tone,pyloric motility; [9],5.3 ± 0.9 mmHg
same,Time until increase of pyloric tone was fully established,pyloric motility; [11],≤ 20 min
same,Time until increase of pyloric tone was significant,pyloric motility; [11],≤ 10 min
same,Volunteers with duodenal phase III,pyloric motility; [11],seven out of 11

# — patent US6579851B2, “Effects of glucagon-like peptide-1 (7-36) on antro-pyloro-duodenal motility” (Amylin Pharmaceuticals, Inc., priority 2000, dated 2003)
